According to ChEMBL document CHEMBL3885861, “Open TG-GATES”:

Species: Rattus norvegicus
Experiment: Open TG-GATES - Regimen: Single
Format: toxicity, organism-based, Sprague-Dawley
Parameters: regimen Single, gender Male, age 6 weeks
Details: in vivo, po, 300 mg/kg, route gavage, dose level High; for APTT / Bas / Eos / Fbg / Hb / Ht / Lym / MCHC / MCV / Mono / Neu / PT / Plat / RBC / Ret / WBC: tissue Blood; for KIDNEY_L / KIDNEY_R / KIDNEY_TOTAL: tissue Kidney; for LIVER: tissue Liver; for ALP / ALT / AST / BUN / CRE / Ca / Cl / DBIL / GLC / IP / K / LDH / Na / PL / RALB / TBIL / TC / TG / TP / gamma-GTP: tissue Plasma

With `CS(=O)(=O)Nc1ccc([N+](=O)[O-])cc1Oc1ccccc1` [NIMESULIDE] the TERMINAL_BW (3 h) was 200.7 g, the APTT (3 h) was 21.2 s and the Bas (3 h) was 0%. For the same compound, the Eos (3 h) was 1.4%, the Fbg (3 h) was 206.8 mg/dL and the Hb (3 h) was 13 g/dL. The Ht (3 h) was 38.1%, the Lym (3 h) was 69.4% and the MCHC (3 h) was 34.1%. For the same compound, the MCV (3 h) was 65.4 fL, the Mono (3 h) was 6% and the Neu (3 h) was 23.6%. The PT (3 h) was 12.4 s, the Plat (3 h) was 109.9 x10_4/uL and the RBC (3 h) was 582.6 x10_4/ul. For the same compound, the Ret (3 h) was 11.4%, the WBC (3 h) was 70.5 x10_2/uL and the KIDNEY_L (3 h) was 0.9 g. For the same compound, the KIDNEY_R (3 h) was 0.9 g, the KIDNEY_TOTAL (3 h) was 1.8 g and the LIVER (3 h) was 8.9 g. For the same compound, the ALP (3 h) was 841.8 IU/L, the ALT (3 h) was 35.8 IU/L and the AST (3 h) was 62.8 IU/L. It also gave a BUN (3 h) of 21.4 mg/dL, a CRE (3 h) of 0.6 mg/dL and a Ca (3 h) of 10.7 mg/dL. It also gave a Cl (3 h) of 102.8 meq/L, a DBIL (3 h) of 0.046 mg/dL and a GLC (3 h) of 313.4 mg/dL. For the same compound, the IP (3 h) was 9.9 mg/dL, the K (3 h) was 4.9 meq/L and the LDH (3 h) was 88.4 IU/L. For the same compound, the Na (3 h) was 138 meq/L, the PL (3 h) was 137.4 mg/dL and the RALB (3 h) was 3.8 g/dL. The TBIL (3 h) was 0.4 mg/dL, the TC (3 h) was 81.2 mg/dL and the TG (3 h) was 49.6 mg/dL. The TP (3 h) was 5.1 g/dL, the gamma-GTP (3 h) was 1 IU/L and the TERMINAL_BW (6 h) was 196.2 g. It also gave an APTT (6 h) of 19.9 s, a Bas (6 h) of 0% and an Eos (6 h) of 0.8%. It also gave a Fbg (6 h) of 207.8 mg/dL, a Hb (6 h) of 13 g/dL and a Ht (6 h) of 39%. It also gave a Lym (6 h) of 68.4%, an MCHC (6 h) of 33.2% and an MCV (6 h) of 64.4 fL. The Mono (6 h) was 2.6%, the Neu (6 h) was 28.6% and the PT (6 h) was 12.5 s. It also gave a Plat (6 h) of 110.2 x10_4/uL, an RBC (6 h) of 605.8 x10_4/ul and a Ret (6 h) of 9.2%. The WBC (6 h) was 44 x10_2/uL, the KIDNEY_L (6 h) was 0.8 g and the KIDNEY_R (6 h) was 0.9 g. It also gave a KIDNEY_TOTAL (6 h) of 1.7 g, an LIVER (6 h) of 8.1 g and an ALP (6 h) of 978 IU/L. It also gave an ALT (6 h) of 30.6 IU/L, an AST (6 h) of 61.6 IU/L and a BUN (6 h) of 19.4 mg/dL. The CRE (6 h) was 0.7 mg/dL, the Ca (6 h) was 10.4 mg/dL and the Cl (6 h) was 101.6 meq/L. The DBIL (6 h) was 0.028 mg/dL, the GLC (6 h) was 360 mg/dL and the IP (6 h) was 10.7 mg/dL. For the same compound, the K (6 h) was 4.5 meq/L, the LDH (6 h) was 83.4 IU/L and the Na (6 h) was 135.4 meq/L. The PL (6 h) was 135 mg/dL, the RALB (6 h) was 3.8 g/dL and the TBIL (6 h) was 0.4 mg/dL. The TC (6 h) was 80.4 mg/dL, the TG (6 h) was 27 mg/dL and the TP (6 h) was 5.3 g/dL. It also gave a gamma-GTP (6 h) of 1 IU/L, a TERMINAL_BW (9 h) of 192.8 g and an APTT (9 h) of 19 s. For the same compound, the Bas (9 h) was 0%, the Eos (9 h) was 0% and the Fbg (9 h) was 208.8 mg/dL. The Hb (9 h) was 13.2 g/dL, the Ht (9 h) was 39.2% and the Lym (9 h) was 74.5%. It also gave an MCHC (9 h) of 33.8%, an MCV (9 h) of 65 fL and a Mono (9 h) of 4.5%. It also gave a Neu (9 h) of 20.8%, a PT (9 h) of 12.8 s and a Plat (9 h) of 108.6 x10_4/uL. It also gave an RBC (9 h) of 603.2 x10_4/ul, a Ret (9 h) of 10.1% and a WBC (9 h) of 54.5 x10_2/uL. It also gave a KIDNEY_L (9 h) of 0.8 g, a KIDNEY_R (9 h) of 0.9 g and a KIDNEY_TOTAL (9 h) of 1.7 g. It also gave an LIVER (9 h) of 7.3 g, an ALP (9 h) of 850.5 IU/L and an ALT (9 h) of 26.8 IU/L. It also gave an AST (9 h) of 59.8 IU/L, a BUN (9 h) of 17.8 mg/dL and a CRE (9 h) of 0.7 mg/dL. It also gave a Ca (9 h) of 10.4 mg/dL, a Cl (9 h) of 102.2 meq/L and a DBIL (9 h) of 0.0125 mg/dL. For the same compound, the GLC (9 h) was 323.5 mg/dL, the IP (9 h) was 9.2 mg/dL and the K (9 h) was 4.8 meq/L. It also gave an LDH (9 h) of 121.2 IU/L, a Na (9 h) of 133.5 meq/L and a PL (9 h) of 128.2 mg/dL. The RALB (9 h) was 4 g/dL, the TBIL (9 h) was 0.4 mg/dL and the TC (9 h) was 76.5 mg/dL. For the same compound, the TG (9 h) was 14.2 mg/dL, the TP (9 h) was 5.3 g/dL and the gamma-GTP (9 h) was 1.8 IU/L. The TERMINAL_BW (24 h) was 182.2 g, the APTT (24 h) was 18.9 s and the Bas (24 h) was 0%. It also gave an Eos (24 h) of 1%, a Fbg (24 h) of 187 mg/dL and a Hb (24 h) of 13.7 g/dL. It also gave a Ht (24 h) of 40.7%, a Lym (24 h) of 61.2% and an MCHC (24 h) of 33.7%. The MCV (24 h) was 63.7 fL, the Mono (24 h) was 9.8% and the Neu (24 h) was 28.2%. It also gave a PT (24 h) of 12.7 s, a Plat (24 h) of 126.6 x10_4/uL and an RBC (24 h) of 639.4 x10_4/ul. The Ret (24 h) was 9.5%, the WBC (24 h) was 117.8 x10_2/uL and the KIDNEY_L (24 h) was 0.9 g. The KIDNEY_R (24 h) was 0.9 g, the KIDNEY_TOTAL (24 h) was 1.9 g and the LIVER (24 h) was 8.1 g. The ALP (24 h) was 783.2 IU/L, the ALT (24 h) was 27.2 IU/L and the AST (24 h) was 64.8 IU/L. It also gave a BUN (24 h) of 22.8 mg/dL, a CRE (24 h) of 0.8 mg/dL and a Ca (24 h) of 9.9 mg/dL. It also gave a Cl (24 h) of 108 meq/L, a DBIL (24 h) of 0.032 mg/dL and a GLC (24 h) of 209 mg/dL. It also gave an IP (24 h) of 7.3 mg/dL, a K (24 h) of 4.6 meq/L and an LDH (24 h) of 99.6 IU/L. For the same compound, the Na (24 h) was 139.6 meq/L, the PL (24 h) was 110.4 mg/dL and the RALB (24 h) was 3.9 g/dL. It also gave a TBIL (24 h) of 0.4 mg/dL, a TC (24 h) of 55.4 mg/dL and a TG (24 h) of 41.2 mg/dL. The TP (24 h) was 5.2 g/dL and the gamma-GTP (24 h) was 1.8 IU/L.
